This is an account of results in patent US20260042764A1, “COMPOSITIONS AND METHODS FOR INHIBITION OF KRAS” (TheRas, Inc., priority 2022, published 2026).

One assay has as its system HCT116 cells (KRAS G13D). Kind of assay: 3D Cell viability assay in HCT116 cells (Biological Example 6). The class given is cell-based. As to conditions: Homo sapiens, HCT-116; HCT116 (KRAS G13D) spheroids, 72 hours. In outline: (§1)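 EC50 came from a four-parameter log(inhibitor) vs response fit of CellTiter-Glo 3D luminescence. Compound exposure lasted 72 h at 37 °C: nine three-fold dilutions, 0.25% final DMSO. Cells were first grown 48 h as 3D spheroids (1000 cells/well, 10% FBS).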
In the case of `CCN(c1nc(OC[C@@]23CCCN2C[C@H](F)C3)nc2c(F)c(-c3ccc(F)c4sc(N)c(C#N)c34)c(C(F)(F)F)cc12)[C@H]1CCS(=O)(=O)C1` (atropisomer, axis not shown) [Compound 492], the half-maximal inhibitory concentration (IC50) (as a rule, the midpoint of a concentration-inhibition curve) was 0.1 to 1 µM.

`CCN(c1nc(OC[C@@]23CCCN2C[C@H](F)C3)nc2c(F)c(-c3ccc(F)c4sc(N)c(C#N)c34)c(C(F)(F)F)cc12)[C@H]1CCN(C(=O)OC)C1` (atropisomer, axis not shown) [Compound 541, methyl(3S)-3-[[7-(2-amino-3-cyano-7-fluoro-benzothiophen-4-yl)-8-fluoro-2-[[(2R,8S)-2-fluoro-1,2,3,5,6,7-hexahydropyrrolizin-8-yl]methoxy]-6-(trifluoromethyl)quinazolin-4-yl]-ethyl-amino]pyrrolidine-1-carboxylate] gave an IC50 of 0.1 to 1 µM.

For the next assay, the system named is RKN cells (KRAS G12V). Kind of assay: 3D Cell viability assay in RKN cells (Biological Example 6). The class given is cell-based. The settings on record: RKN (KRAS G12V) spheroids, 72 hours. An outline of the steps:
as §1
`CCN(c1nc(OC[C@@]23CCCN2C[C@H](F)C3)nc2c(F)c(-c3ccc(F)c4sc(N)c(C#N)c34)c(C(F)(F)F)cc12)[C@H]1C[C@@H]2COC(=O)N2C1` (atropisomer, axis not shown) [Compound 519] came in with an IC50 of at most 0.1 µM.

As for `CCN(c1nc(OC[C@@]23CCCN2C[C@H](F)C3)nc2c(F)c(-c3ccc(F)c4sc(N)c(C#N)c34)c(C(F)(F)F)cc12)[C@H]1CCN(C(=O)OC)C1` (atropisomer, axis not shown) [Compound 541, methyl(3S)-3-[[7-(2-amino-3-cyano-7-fluoro-benzothiophen-4-yl)-8-fluoro-2-[[(2R,8S)-2-fluoro-1,2,3,5,6,7-hexahydropyrrolizin-8-yl]methoxy]-6-(trifluoromethyl)quinazolin-4-yl]-ethyl-amino]pyrrolidine-1-carboxylate], the IC50 is at most 0.1 µM.

`CCN(c1nc(OC[C@@]23CCCN2C[C@H](F)C3)nc2c(F)c(-c3ccc(F)c4sc(N)c(C#N)c34)c(C(F)(F)F)cc12)[C@H]1C[C@H]2COC(=O)N2C1` (atropisomer, axis not shown; (aS)) [Compound 518, 2-amino-4-((S)-4-(ethyl((6S,7aS)-3-oxotetrahydro-1H,3H-pyrrolo[1,2-c]oxazol-6-yl)amino)-8-fluoro-2-(((2R,7aS)-2-fluorotetrahydro-1H-pyrrolizin-7a(5H)-yl)methoxy)-6-(trifluoromethyl)quinazolin-7-yl)-7-fluorobenzo[b]thiophene-3-carbonitrile] yielded an IC50 of at most 0.1 µM.

Consider `CCN(c1nc(OC[C@@]23CCCN2C[C@H](F)C3)nc2c(F)c(-c3ccc(F)c4sc(N)c(C#N)c34)c(C(F)(F)F)cc12)[C@H]1C[C@H]2CN(C)C(=O)N2C1` (atropisomer, axis not shown; (aS)) [Compound 543, 2-amino-4-((S)-4-(ethyl((6S,7aS)-2-methyl-3-oxohexahydro-1H-pyrrolo[1,2-c]imidazol-6-yl)amino)-8-fluoro-2-(((2R,7aS)-2-fluorotetrahydro-1H-pyrrolizin-7a(5H)-yl)methoxy)-6-(trifluoromethyl)quinazolin-7-yl)-7-fluorobenzo[b]thiophene-3-carbonitrile], for which the concentration for half-maximal inhibition (IC50) was at most 0.1 µM.

As to `CCN(c1nc(OC[C@@]23CCCN2C[C@H](F)C3)nc2c(F)c(-c3ccc(F)c4sc(N)c(C#N)c34)c(C(F)(F)F)cc12)[C@H]1CCN(C(=O)C(C)C)C1` (single isomer, unassigned) [Compound 469], the IC50 was at most 0.1 µM.

`Cc1c(C(=O)N(C)C)nn2c1CN(c1nc(OC[C@@]34CCCN3C[C@H](F)C4)nc3c(F)c(-c4ccc(F)c5sc(N)c(C#N)c45)c(C(F)(F)F)cc13)CC2` [Compound 501] registered a half-maximal inhibitory concentration (IC50) of at most 0.1 µM.
